Patent US9777003B2, “Tricyclic heterocycles as bet protein inhibitors” (Incyte Corporation, priority 2013, dated 2017)
Counter-ions that a name gives are not always drawn.

Tests used:
BRD4-BD1 = BRD4-BD1 (Homo sapiens (Human), UniProt O60885); assay: BRD4 AlphaScreen assay, BRD4-BD1; format: binding; settings: biotin-labeled tetra-acetylated histone H4 peptide, 75 min, room temperature, read-out: BRD4 BD-1 enzyme IC50
Method in brief: (§1)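 IC50 values from percent-control versus log inhibitor fits after bead-based proximity readout (streptavidin donor, GSH acceptor, 75 min dark). Reactions: 75 min RT, pH 7.4 HEPES, biotin-H4Ac4 peptide 50 nM, with BD1 at 3.8 nM (DMSO 1.25%) and BD2 at 20 nM (DMSO 0.83%).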

BRD4-BD2 = BRD4-BD2 (Homo sapiens (Human), UniProt O60885); assay: BRD4 AlphaScreen assay, BRD4-BD2; format: binding; settings: biotin-labeled tetra-acetylated histone H4 peptide, 75 min, room temperature, read-out: BRD4 BD-2 enzyme IC50
Method in brief: as §1

Compound | IC50 (BRD4-BD1) | IC50 (BRD4-BD2)
Cc1cc2c(cc(NC(=O)C(C)C)c3nnc(C)n32)n1Cc1ccccc1 [Example 270, N-(6-Benzyl-1,7-dimethyl-6H-pyrrolo[2,3-e][1,2,4]triazolo[4,3-a]pyridin-4-yl)isobutyramide] | ≤ 100 nM | ≤ 100 nM
CCNC(=O)c1cc2c(ccc3nnc(C)n32)n1Cc1cccc(Cl)c1 [Example 113, 6-(3-Chlorobenzyl)-N-ethyl-1-methyl-6H-pyrrolo[2,3-e][1,2,4]triazolo[4,3-a]pyridine-7-carboxamide Trifluoroacetate Salt] | ≤ 100 nM | ≤ 100 nM
Cc1nnc2ccc3c(cc(C(=O)NCC(C)C)n3Cc3cccc(Cl)c3)n12 [Example 129, 6-(3-Chlorobenzyl)-N-isobutyl-1-methyl-6H-pyrrolo[2,3-e][1,2,4]triazolo[4,3-a]pyridine-7-carboxamide Trifluoroacetate Salt] | ≤ 100 nM | ≤ 100 nM
Cc1cc2c(cc(NC3CCN(C)CC3)c3nnc(C)n32)n1Cc1cccnc1 [Example 154, 1,7-dimethyl-N-(1-methylpiperidin-4-yl)-6-(pyridin-3-ylmethyl)-6H-pyrrolo[2,3-e][1,2,4]triazolo[4,3-a]pyridin-4-amine] | ≤ 100 nM | ≤ 100 nM
Cc1nnc2ccc3c(ccn3S(=O)(=O)c3ccccc3)n12 [Example 3, 1-methyl-6-(phenylsulfonyl)-6H-pyrrolo[2,3-e][1,2,4]triazolo[4,3-a]pyridine] | 100 to 1000 nM | 100 to 1000 nM
Cc1cc2c(cc(NCC3CCC3)c3nnc(C)n32)n1Cc1ccccc1 [Example 241, 6-Benzyl-N-(cyclobutylmethyl)-1,7-dimethyl-6H-pyrrolo[2,3-e][1,2,4]triazolo[4,3-a]pyridin-4-amine] | 100 to 1000 nM | ≤ 100 nM
Cc1cc2c(ccc3nnc(C)n32)n1Cc1ccc(CO)cc1 [Example 49, {4-[(1,7-dimethyl-6H-pyrrolo[2,3-e][1,2,4]triazolo[4,3-a]pyridin-6-yl)methyl]phenyl}methanol] | 100 to 1000 nM | ≤ 100 nM
CCCCC(c1ccccc1)n1c(C)cc2c1ccc1nnc(C)n12 (racemic) [Example 24, 1,7-dimethyl-6-(1-phenylpentyl)-6H-pyrrolo[2,3-e][1,2,4]triazolo[4,3-a]pyridine] | 100 to 1000 nM | 100 to 1000 nM
Cc1nnc2ccc3c(cc(-c4ccn(C5(CC#N)CN(S(C)(=O)=O)C5)n4)n3Cc3cccc(Cl)c3)n12 [Example 107, [3-{3-[6-(3-chlorobenzyl)-1-methyl-6H-pyrrolo[2,3-e][1,2,4]triazolo[4,3-a]pyridin-7-yl]-1H-pyrazol-1-yl}-1-(methylsulfonyl)azetidin-3-yl]acetonitrile] | ≤ 100 nM | ≤ 100 nM
Cc1cc2c(ccc3nnc(C)n32)n1Cc1ccc(F)cc1 [Example 16, 6-(4-fluorobenzyl)-1,7-dimethyl-6H-pyrrolo[2,3-e][1,2,4]triazolo[4,3-a]pyridine] | ≤ 100 nM | ≤ 100 nM
COc1cc2c(cc(C)n2Cc2ccccc2)n2c(C)nnc12 [Example 264, 6-Benzyl-4-methoxy-1,7-dimethyl-6H-pyrrolo[2,3-e][1,2,4]triazolo[4,3-a]pyridine] | 100 to 1000 nM | 100 to 1000 nM
CC(=O)N1CC(n2ccc(-c3cc4c(ccc5nnc(C)n54)n3Cc3cccc(Cl)c3)n2)C1 [Example 108, 7-[1-(1-acetylazetidin-3-yl)-1H-pyrazol-3-yl]-6-(3-chlorobenzyl)-1-methyl-6H-pyrrolo[2,3-e][1,2,4]triazolo[4,3-a]pyridine] | ≤ 100 nM | ≤ 100 nM
Cc1cc2c(ccc3nnc(C)n32)n1Cc1cccc(CN2CCNCC2)c1 [Example 48, 1,7-dimethyl-6-[3-(piperazin-1-ylmethyl)benzyl]-6H-pyrrolo[2,3-e][1,2,4]triazolo[4,3-a]pyridine] | 100 to 1000 nM | ≤ 100 nM
Cc1cc2c(ccc3nnc(C)n32)n1CCc1ccccc1 [Example 6, 1,7-dimethyl-6-(2-phenylethyl)-6H-pyrrolo[2,3-e][1,2,4]triazolo[4,3-a]pyridine] | 100 to 1000 nM | 100 to 1000 nM
Cc1cc2c(cc(NCC3CC3)c3nnc(C)n32)n1Cc1ccccc1 [Example 228, 6-Benzyl-N-(cyclopropylmethyl)-1,7-dimethyl-6H-pyrrolo[2,3-e][1,2,4]triazolo[4,3-a]pyridin-4-amine] | ≤ 100 nM | ≤ 100 nM
Cc1nnc2ccc3c(cc(C(=O)NCC4CNC4)n3Cc3cccc(Cl)c3)n12 [Example 128, N-(Azetidin-3-ylmethyl)-6-(3-chlorobenzyl)-1-methyl-6H-pyrrolo[2,3-e][1,2,4]triazolo[4,3-a]pyridine-7-carboxamide bis(trifluoroacetate) Salt] | 100 to 1000 nM | 100 to 1000 nM

Compound | IC50 (BRD4-BD1) | IC50 (BRD4-BD2)
CNC(=O)c1cccc(Cn2c(C)cc3c2ccc2nnc(C)n23)c1 [Example 32, 3-[(1,7-dimethyl-6H-pyrrolo[2,3-e][1,2,4]triazolo[4,3-a]pyridin-6-yl)methyl]-N-methylbenzamide Trifluoroacetate Salt] | 100 to 1000 nM | ≤ 100 nM
Cc1cc2c(cc(Nc3ccccn3)c3nnc(C)n32)n1Cc1ccccc1 [Example 240, 6-benzyl-1,7-Dimethyl-N-(pyridin-2-yl)-6H-pyrrolo[2,3-e][1,2,4]triazolo[4,3-a]pyridin-4-amine] | ≤ 100 nM | ≤ 100 nM
Cc1cc2c(ccc3nnc(C)n32)n1Cc1cccc(CN(C)C)c1 [Example 40, 1-{3-[(1,7-dimethyl-6H-pyrrolo[2,3-e][1,2,4]triazolo[4,3-a]pyridin-6-yl)methyl]phenyl}-N,N-dimethylmethanamine] | ≤ 100 nM | ≤ 100 nM
Cc1nnc2ccc3c(cc(C(=O)N4CC(C#N)C4)n3Cc3ccccc3)n12 [Example 60, 1-[(6-benzyl-1-methyl-6H-pyrrolo[2,3-e][1,2,4]triazolo[4,3-a]pyridin-7-yl)carbonyl]azetidine-3-carbonitrile] | 100 to 1000 nM | ≤ 100 nM
Cc1cc2c(ccc3nnc(C)n32)n1Cc1ccccc1 [Example 2, 6-benzyl-1,7-dimethyl-6H-pyrrolo[2,3-e][1,2,4]triazolo[4,3-a]pyridine] | ≤ 100 nM | ≤ 100 nM
Cc1cc2c(ccc3nnc(C)n32)n1Cc1cccc(C#N)c1 [Example 20, 3-[(1,7-dimethyl-6H-pyrrolo[2,3-e][1,2,4]triazolo[4,3-a]pyridine-6-yl)methyl]benzonitrile] | 100 to 1000 nM | ≤ 100 nM
CCNC(=O)CCn1ccc(-c2cc3c(ccc4nnc(C)n43)n2Cc2cccc(Cl)c2)n1 [Example 175, 3-{3-[6-(3-Chlorobenzyl)-1-methyl-6H-pyrrolo[2,3-e][1,2,4]triazolo[4,3-a]pyridin-7-yl]-1H-pyrazol-1-yl}-N-ethylpropanamide Trifluoroacetate Salt] | ≤ 100 nM | ≤ 100 nM
CN[C@H]1CC[C@@H](Nc2cc3c(cc(C)n3Cc3ccccc3)n3c(C)nnc23)CC1 [Example 221, cis-N-(6-Benzyl-1,7-dimethyl-6H-pyrrolo[2,3-e][1,2,4]triazolo[4,3-a]pyridin-4-yl)-N′-methylcyclohexane-1,4-diamine] | ≤ 100 nM | ≤ 100 nM
CCNC(=O)c1cc2c(ccc3nnc(C)n32)n1Cc1cc(Cl)cc(CN2CCCC2)c1 [Example 133, 6-[3-Chloro-5-(pyrrolidin-1-ylmethyl)benzyl]-N-ethyl-1-methyl-6H-pyrrolo[2,3-e][1,2,4]triazolo[4,3-a]pyridine-7-carboxamide bis(trifluoroacetate) Salt] | ≤ 100 nM | ≤ 100 nM
CNC(=O)c1cc2c(ccc3nnc(C)n32)n1Cc1cc(Cl)cc(CN2CC(C)(C)C2)c1 [Example 135, 6-{3-Chloro-5-[(3,3-dimethylazetidin-1-yl)methyl]benzyl}-N,1-dimethyl-6H-pyrrolo[2,3-e][1,2,4]triazolo[4,3-a]pyridine-7-carboxamide bis(trifluoroacetate) Salt] | ≤ 100 nM | ≤ 100 nM
CCN1CC(n2ccc(-c3cc4c(ccc5nnc(C)n54)n3Cc3cccc(Cl)c3)n2)C1 [Example 160, 6-(3-Chlorobenzyl)-7-[1-(1-ethylazetidin-3-yl)-1H-pyrazol-3-yl]-1-methyl-6H-pyrrolo[2,3-e][1,2,4]triazolo[4,3-a]pyridine bis(trifluoroacetate) Salt] | ≤ 100 nM | ≤ 100 nM
Cc1nnc2ccc3c(cc(-c4ncco4)n3Cc3cc(Cl)cc(CN4CCC(O)C4)c3)n12 (racemic) [Example 199, 1-(3-Chloro-5-{[1-methyl-7-(1,3-oxazol-2-yl)-6H-pyrrolo[2,3-e][1,2,4]triazolo[4,3-a]pyridin-6-yl]methyl}benzyl)pyrrolidin-3-ol bis(trifluoroacetate) Salt (Racemic)] | ≤ 100 nM | ≤ 100 nM
Cc1nnc2ccc3c(cc(-c4cn[nH]c4)n3Cc3ccccc3)n12 [Example 63, 6-benzyl-1-methyl-7-(1H-pyrazol-4-yl)-6H-pyrrolo[2,3-e][1,2,4]triazolo[4,3-a]pyridine] | ≤ 100 nM | ≤ 100 nM
CC(=O)Nc1cc2c(cc(C)n2Cc2ccccc2)n2c(C)nnc12 [Example 266, N-(6-Benzyl-1,7-dimethyl-6H-pyrrolo[2,3-e][1,2,4]triazolo[4,3-a]pyridin-4-yl)acetamide] | ≤ 100 nM | ≤ 100 nM
Cc1cc2c(ccc3nnc(C)n32)n1Cc1cccc(Cl)c1 [Example 9, 6-(3-chlorobenzyl)-1,7-dimethyl-6H-pyrrolo[2,3-e][1,2,4]triazolo[4,3-a]pyridine] | ≤ 100 nM | ≤ 100 nM
Cc1cc2c(cc(N[C@H]3CCNC3)c3nnc(C)n32)n1Cc1ccccc1 [Example 152, 6-benzyl-1,7-dimethyl-N-[(3S)-pyrrolidin-3-yl]-6H-pyrrolo[2,3-e][1,2,4]triazolo[4,3-a]pyridin-4-amine bis(trifluoroacetate) Salt] | ≤ 100 nM | ≤ 100 nM
